Source: patent US7293985B2 (priority 1998, dated 2007)
Counter-ions that a name gives are not always drawn. Like-named read-outs stand apart in the source and are kept apart here.

What was measured:
[1] = test system: Vesicular stomatitis virus (VSV); format: cell-based
physchem [2] = conditions: pH 7
physchem [3] = conditions: buffer
[4] = test system: murine red blood cells (RBCs); conditions: mouse, in vivo
Yersinia enterocolitica = format: cell-based
red blood cell membranes = conditions: 3 mM Glutathione added to PRBCs
Protocol: The concentration of GSH was calculated based on the absorbance at 412 nm using a Beckman DU20 (Beckman, Irvine, Calif.) single wavelength spectrometer.

[5] = test system: Staphylococcus epidermidis; format: cell-based
cell-free HIV-IIIB = format: cell-based; conditions: for Log Kill / Log Titer: no PIC-1, GSH 30 mM

With `O=S(=O)(O)CCS` [MENSA, mercaptoethanesulfonic acid sodium salt] the “Log Kill” value [1] was 2.3 log.
Compound `O=C(CCNc1c2ccccc2nc2ccccc12)OCCN(CCCl)CCCl` [PIC-1, β-alanine, N-(acridin-9-yl), 2-[bis(2-chloroethyl)amino]ethyl ester] has a half-life (physchem [2]) of 32 min, a half-life (physchem [3]; pH 2.2) of 450 min and a half-life (physchem [3]; pH 6) of 25 min.
In the case of `O=C(CCNc1c2ccccc2nc2ccccc12)NCCN(CCCl)CCCl` [PIC-2, P-alanine, N-(acridin-9-yl), 2-[bis(2-chloroethyl)amino]ethyl amide], the “RBC survival compared to control” value [4] is reported as “substantially the same as control” and the “recovery or lifespan of treated RBCs compared to label-only controls” value [4] is reported as “No difference”.
For `N[C@@H](CS)C(=O)O` [cysteine], the “Log Kill” value (Yersinia enterocolitica) was 0 log and the “Log Titer” value (Yersinia enterocolitica) was 7.4 log.
For `N[C@@H](CCC(=O)N[C@@H](CS)C(=O)NCC(=O)O)C(=O)O` [glutathione], the “Log Kill” value (Yersinia enterocolitica) was 0 log, the “Log Titer” value (Yersinia enterocolitica) was 7.4 log and the reduction of inactivation (Yersinia enterocolitica) was 1 to 2 log kill. For the same compound, the “recovery or lifespan of treated RBCs compared to label-only controls” value [4] was “No difference”, the “Absorption 412 nm Supernatant” value (red blood cell membranes; Time 0 min) was 0.33 and the “Absorption 412 nm Total” value (red blood cell membranes; Time 0 min) was 0.230. For the same compound, the “GSH Concentration Supernatant” value (red blood cell membranes; Time 0 min) was 3.071 mM, the “GSH Concentration Total” value (red blood cell membranes; Time 0 min) was 5.286 mM and the “Absorption 412 nm Supernatant” value (red blood cell membranes; Time 60 min) was 0.318. For the same compound, the “Absorption 412 nm Total” value (red blood cell membranes; Time 60 min) was 0.227, the “GSH Concentration Supernatant” value (red blood cell membranes; Time 60 min) was 2.96 mM and the “GSH Concentration Total” value (red blood cell membranes; Time 60 min) was 5.217 mM. For the same compound, the “Absorption 412 nm Supernatant” value (red blood cell membranes; Time 120 min) was 0.312, the “Absorption 412 nm Total” value (red blood cell membranes; Time 120 min) was 0.231 and the “GSH Concentration Supernatant” value (red blood cell membranes; Time 120 min) was 2.90 mM. The “GSH Concentration Total” value (red blood cell membranes; Time 120 min) was 5.308 mM, the “Absorption 412 nm Supernatant” value (red blood cell membranes; Time 270 min) was 0.306 and the “Absorption 412 nm Total” value (red blood cell membranes; Time 270 min) was 0.213. For the same compound, the “GSH Concentration Supernatant” value (red blood cell membranes; Time 270 min) was 2.85 mM, the “GSH Concentration Total” value (red blood cell membranes; Time 270 min) was 4.898 mM and the “Absorption 412 nm Supernatant” value (red blood cell membranes; Time 1080 min) was 0.297. For the same compound, the “Absorption 412 nm Total” value (red blood cell membranes; Time 1080 min) was 0.227, the “GSH Concentration Supernatant” value (red blood cell membranes; Time 1080 min) was 2.77 mM and the “GSH Concentration Total” value (red blood cell membranes; Time 1080 min) was 5.217 mM. For the same compound, the “Absorption 412 nm Supernatant” value (red blood cell membranes; Time 1440 min) was 0.296, the “Absorption 412 nm Total” value (red blood cell membranes; Time 1440 min) was 0.220 and the “GSH Concentration Supernatant” value (red blood cell membranes; Time 1440 min) was 2.76 mM. The “GSH Concentration Total” value (red blood cell membranes; Time 1440 min) was 5.058 mM, the “Log Kill” value [5] was 0 log and the “Log Titer” value [5] was 7.5 log. The “reduction of HIV infectivity” value (cell-free HIV-IIIB; 30 mM glutathione alone (samples 2 and 4 compared to samples 1 and 3)) was 0.3 to 0.6 logs, the “Log Kill” value (cell-free HIV-IIIB; 12 hour incubation (sample 4)) was 0.6 log and the “Log Titer” value (cell-free HIV-IIIB; 12 hour incubation (sample 4)) was 6.4 log. For the same compound, the “Log Kill” value (cell-free HIV-IIIB; no incubation (sample 2)) was 0.3 log and the “Log Titer” value (cell-free HIV-IIIB; no incubation (sample 2)) was 6.9 log.
